Reference: ChEMBL document CHEMBL5532657, “Serendipitous discovery of Class I HDAC inhibitors from rational design of molecular glue degraders targeting HDAC” (Eur J Med Chem, 2024)
The source made the active and inactive calls. The rule behind the calls is not given here.

Key:
[1] = biological target: Zinc finger protein Aiolos (Homo sapiens) (UniProt Q9UKT9); test: Induction of IKZF3 degradation in human RS4-11 cells at 1 to 10 uM by Western blotting analysis; format: cell-based; conditions: dose 1-10 µM
[2] = biological target: T1, Histone deacetylase (Homo sapiens) (UniProt Q13547+O15379+Q9UBN7+Q92769+Q9UQL6+Q8WUI4+Q9BY41+Q96DB2+P56524+Q9UKV0+Q969S8); test: Inhibition of HDAC in human RS4-11 cells assessed as upregulation of histone H3 acetylation at 1 to 10 uM by Western blot assay; format: cell-based; conditions: dose 1-10 µM
U-266 [3] = test: Antiproliferative activity against human U-266 cells assessed as cell growth inhibition at 5 uM incubated for 48 hrs by CCK-8 assay; format: functional, cell-based
Histone deacetylase 11 = biological target: T2, Histone deacetylase 11 (Homo sapiens, UniProt Q96DB2); test: Inhibition of HDAC11 in human HeLa cells nuclear extract using BocLys(acetyl)-AMC as substrate incubated for 1 hr by fluorescence plate reader analysis; format: subcellular, Nucleus
T2 sequence (Q96DB2 whole entry): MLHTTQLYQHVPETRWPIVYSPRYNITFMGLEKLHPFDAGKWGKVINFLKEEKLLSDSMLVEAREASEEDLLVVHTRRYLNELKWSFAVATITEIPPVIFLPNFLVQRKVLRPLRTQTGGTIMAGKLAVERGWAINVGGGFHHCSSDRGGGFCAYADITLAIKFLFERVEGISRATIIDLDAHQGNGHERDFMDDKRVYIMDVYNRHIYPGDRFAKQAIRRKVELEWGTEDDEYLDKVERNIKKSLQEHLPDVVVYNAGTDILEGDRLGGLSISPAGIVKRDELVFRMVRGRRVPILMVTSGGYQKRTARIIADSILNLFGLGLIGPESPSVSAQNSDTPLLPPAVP

Histone deacetylase 9 = Histone deacetylase 9 (Homo sapiens, UniProt Q9UKV0); test: Inhibition of HDAC9 in human HeLa cells nuclear extract using BocLys(acetyl)-AMC as substrate incubated for 1 hr by fluorescence plate reader analysis; format: subcellular, Nucleus
K562 = test: Antiproliferative activity against human K562 cells assessed as cell growth inhibition at 5 uM incubated for 48 hrs by CCK-8 assay; format: functional, cell-based
[4] = biological target: T1, Histone deacetylase (Homo sapiens); test: Inhibition of HDAC in human RS4-11 cells assessed as upregulation of histone H3 acetylation by Western blot assay; format: cell-based
RPMI-8226 [5] = test: Antiproliferative activity against human RPMI-8226 cells assessed as cell growth inhibition at 5 uM incubated for 48 hrs by CCK-8 assay; format: functional, cell-based
[6] = biological target: T3, Protein deacetylase HDAC6 (Homo sapiens, UniProt Q9UBN7); test: Inhibition of HDAC6 (unknown origin) using BocLys(acetyl)-AMC as substrate incubated for 1 hr by fluorescence plate reader analysis
T3 sequence (Q9UBN7 whole entry): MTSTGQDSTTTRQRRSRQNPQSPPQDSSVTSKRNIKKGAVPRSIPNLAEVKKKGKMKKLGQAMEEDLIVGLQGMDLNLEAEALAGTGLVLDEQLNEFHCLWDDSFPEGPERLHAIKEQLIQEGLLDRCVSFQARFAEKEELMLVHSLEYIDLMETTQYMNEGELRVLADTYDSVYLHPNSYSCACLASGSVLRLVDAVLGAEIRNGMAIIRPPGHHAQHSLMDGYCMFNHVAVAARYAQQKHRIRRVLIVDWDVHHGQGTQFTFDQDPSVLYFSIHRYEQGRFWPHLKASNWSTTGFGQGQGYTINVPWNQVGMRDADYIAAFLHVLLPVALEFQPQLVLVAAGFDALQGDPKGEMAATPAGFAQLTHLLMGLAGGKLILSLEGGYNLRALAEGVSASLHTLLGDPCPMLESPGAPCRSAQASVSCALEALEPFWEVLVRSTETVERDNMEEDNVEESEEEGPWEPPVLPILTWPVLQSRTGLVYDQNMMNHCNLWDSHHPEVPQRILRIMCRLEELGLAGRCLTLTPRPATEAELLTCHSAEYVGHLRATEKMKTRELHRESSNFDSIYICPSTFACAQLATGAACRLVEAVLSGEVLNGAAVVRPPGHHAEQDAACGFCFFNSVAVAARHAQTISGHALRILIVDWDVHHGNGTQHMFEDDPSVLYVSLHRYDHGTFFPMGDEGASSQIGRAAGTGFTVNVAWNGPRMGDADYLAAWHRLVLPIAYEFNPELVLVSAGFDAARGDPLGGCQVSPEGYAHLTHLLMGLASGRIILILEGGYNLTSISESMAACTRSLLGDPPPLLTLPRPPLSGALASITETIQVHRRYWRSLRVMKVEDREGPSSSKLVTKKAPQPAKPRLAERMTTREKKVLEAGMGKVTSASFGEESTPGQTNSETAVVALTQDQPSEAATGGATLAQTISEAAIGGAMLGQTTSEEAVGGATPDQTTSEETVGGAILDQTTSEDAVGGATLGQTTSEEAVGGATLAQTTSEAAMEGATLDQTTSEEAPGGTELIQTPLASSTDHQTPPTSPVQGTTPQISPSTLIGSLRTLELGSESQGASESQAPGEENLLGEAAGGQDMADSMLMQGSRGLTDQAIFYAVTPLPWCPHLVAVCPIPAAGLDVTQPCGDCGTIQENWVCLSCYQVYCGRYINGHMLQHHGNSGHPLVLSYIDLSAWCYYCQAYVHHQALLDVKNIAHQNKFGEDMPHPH

HeLa = test: Antiproliferative activity against human HeLa cells assessed as cell growth inhibition at 5 uM incubated for 48 hrs by CCK-8 assay; format: functional, cell-based
RPMI-8226 [7] = test: Antiproliferative activity against human RPMI-8226 cells assessed as cell growth inhibition incubated for 48 hrs by CCK-8 assay; format: functional, cell-based; conditions: RPMI-8226, 48 h
HCT-116 = test: Antiproliferative activity against human HCT-116 cells assessed as cell growth inhibition at 5 uM incubated for 48 hrs by CCK-8 assay; format: functional, cell-based
[8] = biological target: DNA-binding protein Ikaros (Homo sapiens) (UniProt Q13422); test: Induction of IKZF1 degradation in human RS4-11 cells at 1 to 10 uM by Western blotting analysis; format: cell-based; conditions: dose 1-10 µM
A549 = test: Antiproliferative activity against human A549 cells assessed as cell growth inhibition at 5 uM incubated for 48 hrs by CCK-8 assay; format: functional, cell-based
RS4-11 [9] = test: Induction of cell cycle arrest in human RS4-11 cells assessed as S phase arrest after 48 hrs by PI staining based flow cytometry analysis; format: functional; conditions: dose 1-10 µM
RS4-11 [10] = test: Induction of apoptosis in human RS4-11 cells assessed as cleavage of caspase-3 at 1 to 10 uM; format: functional, cell-based; conditions: dose 1-10 µM
U-266 [11] = test: Antiproliferative activity against human U-266 cells assessed as cell growth inhibition incubated for 48 hrs by CCK-8 assay; format: functional, cell-based; conditions: U-266, 48 h
RS4-11 [12] = test: Induction of apoptosis in human RS4-11 cells assessed as cleaved caspase-9 release at 1 to 10 uM; format: functional, cell-based; conditions: dose 1-10 µM
[13] = biological target: T4, Protein deacetylase HDAC6 (Homo sapiens) (UniProt Q9UBN7); test: Induction of HDAC6 degradation in human RS4-11 cells at 0.5 to 10 uM incubated for 12 hrs by Western blotting analysis; format: cell-based; conditions: dose 0.5-10 µM
T4 sequence (whole entry): T3 sequence (Q9UBN7 whole entry)

RS4-11 [14] = test: Induction of apoptosis in human RS4-11 cells assessed as upregulation of p21 at 1 to 10 uM; format: functional, cell-based; conditions: dose 1-10 µM

Sequence of Zinc finger protein Aiolos (Homo sapiens) (Q9UKT9 whole entry): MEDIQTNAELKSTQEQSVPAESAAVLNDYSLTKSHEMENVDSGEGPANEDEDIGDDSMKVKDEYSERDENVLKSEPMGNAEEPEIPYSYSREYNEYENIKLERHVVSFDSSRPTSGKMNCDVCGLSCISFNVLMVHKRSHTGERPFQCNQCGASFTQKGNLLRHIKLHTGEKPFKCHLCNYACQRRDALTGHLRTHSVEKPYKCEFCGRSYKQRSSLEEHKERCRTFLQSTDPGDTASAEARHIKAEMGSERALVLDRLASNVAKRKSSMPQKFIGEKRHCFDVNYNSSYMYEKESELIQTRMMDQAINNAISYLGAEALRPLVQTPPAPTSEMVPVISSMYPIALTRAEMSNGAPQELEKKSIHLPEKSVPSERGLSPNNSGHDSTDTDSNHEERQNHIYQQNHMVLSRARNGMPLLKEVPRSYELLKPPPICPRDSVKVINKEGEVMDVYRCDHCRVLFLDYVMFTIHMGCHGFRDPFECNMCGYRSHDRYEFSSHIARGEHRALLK
Sequence of Histone deacetylase 9 (Q9UKV0 whole entry): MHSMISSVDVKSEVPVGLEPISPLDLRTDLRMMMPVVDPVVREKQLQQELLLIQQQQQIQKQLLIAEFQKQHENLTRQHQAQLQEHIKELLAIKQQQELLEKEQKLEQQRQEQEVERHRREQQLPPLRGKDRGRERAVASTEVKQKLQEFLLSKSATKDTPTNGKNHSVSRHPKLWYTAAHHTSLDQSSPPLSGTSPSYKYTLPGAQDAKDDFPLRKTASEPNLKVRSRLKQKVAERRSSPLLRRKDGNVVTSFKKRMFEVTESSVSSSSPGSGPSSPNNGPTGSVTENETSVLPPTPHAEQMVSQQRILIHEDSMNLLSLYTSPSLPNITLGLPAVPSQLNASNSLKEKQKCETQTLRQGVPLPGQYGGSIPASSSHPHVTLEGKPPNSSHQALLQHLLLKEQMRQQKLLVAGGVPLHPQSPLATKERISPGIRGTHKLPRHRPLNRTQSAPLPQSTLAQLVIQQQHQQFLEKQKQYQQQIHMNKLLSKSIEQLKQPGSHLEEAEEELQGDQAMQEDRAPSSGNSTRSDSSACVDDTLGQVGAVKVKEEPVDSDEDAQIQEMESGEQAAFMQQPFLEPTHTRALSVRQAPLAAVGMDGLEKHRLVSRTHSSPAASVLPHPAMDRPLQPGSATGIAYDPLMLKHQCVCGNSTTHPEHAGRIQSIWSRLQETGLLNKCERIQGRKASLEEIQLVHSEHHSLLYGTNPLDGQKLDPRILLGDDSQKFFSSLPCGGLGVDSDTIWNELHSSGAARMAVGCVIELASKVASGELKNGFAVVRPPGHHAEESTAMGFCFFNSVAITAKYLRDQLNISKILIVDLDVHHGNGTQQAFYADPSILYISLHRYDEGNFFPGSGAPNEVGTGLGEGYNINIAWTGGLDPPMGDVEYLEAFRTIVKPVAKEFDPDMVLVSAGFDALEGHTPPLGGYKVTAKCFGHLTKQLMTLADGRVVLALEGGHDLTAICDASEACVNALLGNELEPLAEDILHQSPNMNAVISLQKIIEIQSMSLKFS
Sequence of DNA-binding protein Ikaros (Homo sapiens) (Q13422 whole entry): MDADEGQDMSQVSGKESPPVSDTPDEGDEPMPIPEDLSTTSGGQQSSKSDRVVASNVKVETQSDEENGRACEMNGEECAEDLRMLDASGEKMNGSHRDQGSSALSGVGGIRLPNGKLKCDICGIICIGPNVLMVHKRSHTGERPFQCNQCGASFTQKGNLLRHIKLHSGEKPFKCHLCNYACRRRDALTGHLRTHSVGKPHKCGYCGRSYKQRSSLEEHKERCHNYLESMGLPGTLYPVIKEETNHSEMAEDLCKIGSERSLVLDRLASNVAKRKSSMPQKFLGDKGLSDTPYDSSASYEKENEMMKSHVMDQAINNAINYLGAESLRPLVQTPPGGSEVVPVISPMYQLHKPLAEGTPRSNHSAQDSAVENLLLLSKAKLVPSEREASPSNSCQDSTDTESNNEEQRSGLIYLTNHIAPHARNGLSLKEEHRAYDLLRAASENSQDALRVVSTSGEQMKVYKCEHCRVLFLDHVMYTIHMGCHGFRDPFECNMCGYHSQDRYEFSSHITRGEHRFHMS

| SMILES | Activity [1] | Activity [2] | Activity (U-266 [3]) | IC50 (Histone deacetylase 11) | IC50 (Histone deacetylase 9) | Activity (K562) | inhibition [4] | Activity (RPMI-8226 [5]) | IC50 [6] | Activity (HeLa) | IC50 (RPMI-8226 [7]) | Activity (HCT-116) | Activity [8] | Activity (A549) | Activity (RS4-11 [9]) | Activity (RS4-11 [10]) | IC50 (U-266 [11]) | Activity (RS4-11 [12]) | Activity [13] | Activity (RS4-11 [14]) |
| --- | --- | --- | --- | --- | --- | --- | --- | --- | --- | --- | --- | --- | --- | --- | --- | --- | --- | --- | --- | --- |
| Nc1ccccc1NC(=O)c1ccc(CNc2cccc3c2C(=O)N(C2CCC(=O)NC2=O)C3=O)cc1 (stereo not given) | Active | Active | Active | > 2000 nM | > 2000 nM | Active | Active | Active | > 2000 nM | inactive | 5750 nM | inactive | Active | inactive | Dose-Dependent Effect | Active | 4890 nM | Active | inactive | Active |
| Nc1cc(F)ccc1NC(=O)c1ccc(CNc2cccc3c2C(=O)N(C2CCC(=O)NC2=O)C3=O)cc1 (stereo not given) | Active | Active | Active | > 2000 nM | > 2000 nM | Active | Active | Active | > 2000 nM | inactive | 3720 nM | inactive | Active | inactive | Dose-Dependent Effect | Active | 2940 nM | Active | inactive | Active |
